Our source for the IC50 values is ChEMBL document CHEMBL3870309, “Identification of new potent phthalazine derivatives with VEGFR-2 and EGFR kinase inhibitory activity” (Eur J Med Chem, 2016).

Assay [1] has as its target Epidermal growth factor receptor (Homo sapiens, UniProt P00533). Kind of assay: Inhibition of EGFR (unknown origin) using poly (Glu, Tyr) 4:1 as substrate after 1 hr by ELISA.
A further assay can be described thus: cells. The settings on record: Homo sapiens, HeLa, 72 h.
Assay [2] deals with Vascular endothelial growth factor receptor 2 (Homo sapiens, UniProt P35968). Description: Inhibition of VEGFR-2 (unknown origin) using poly (Glu, Tyr) 4:1 as substrate after 1 hr by ELISA.
Sequence of Vascular endothelial growth factor receptor 2 (P35968 whole entry): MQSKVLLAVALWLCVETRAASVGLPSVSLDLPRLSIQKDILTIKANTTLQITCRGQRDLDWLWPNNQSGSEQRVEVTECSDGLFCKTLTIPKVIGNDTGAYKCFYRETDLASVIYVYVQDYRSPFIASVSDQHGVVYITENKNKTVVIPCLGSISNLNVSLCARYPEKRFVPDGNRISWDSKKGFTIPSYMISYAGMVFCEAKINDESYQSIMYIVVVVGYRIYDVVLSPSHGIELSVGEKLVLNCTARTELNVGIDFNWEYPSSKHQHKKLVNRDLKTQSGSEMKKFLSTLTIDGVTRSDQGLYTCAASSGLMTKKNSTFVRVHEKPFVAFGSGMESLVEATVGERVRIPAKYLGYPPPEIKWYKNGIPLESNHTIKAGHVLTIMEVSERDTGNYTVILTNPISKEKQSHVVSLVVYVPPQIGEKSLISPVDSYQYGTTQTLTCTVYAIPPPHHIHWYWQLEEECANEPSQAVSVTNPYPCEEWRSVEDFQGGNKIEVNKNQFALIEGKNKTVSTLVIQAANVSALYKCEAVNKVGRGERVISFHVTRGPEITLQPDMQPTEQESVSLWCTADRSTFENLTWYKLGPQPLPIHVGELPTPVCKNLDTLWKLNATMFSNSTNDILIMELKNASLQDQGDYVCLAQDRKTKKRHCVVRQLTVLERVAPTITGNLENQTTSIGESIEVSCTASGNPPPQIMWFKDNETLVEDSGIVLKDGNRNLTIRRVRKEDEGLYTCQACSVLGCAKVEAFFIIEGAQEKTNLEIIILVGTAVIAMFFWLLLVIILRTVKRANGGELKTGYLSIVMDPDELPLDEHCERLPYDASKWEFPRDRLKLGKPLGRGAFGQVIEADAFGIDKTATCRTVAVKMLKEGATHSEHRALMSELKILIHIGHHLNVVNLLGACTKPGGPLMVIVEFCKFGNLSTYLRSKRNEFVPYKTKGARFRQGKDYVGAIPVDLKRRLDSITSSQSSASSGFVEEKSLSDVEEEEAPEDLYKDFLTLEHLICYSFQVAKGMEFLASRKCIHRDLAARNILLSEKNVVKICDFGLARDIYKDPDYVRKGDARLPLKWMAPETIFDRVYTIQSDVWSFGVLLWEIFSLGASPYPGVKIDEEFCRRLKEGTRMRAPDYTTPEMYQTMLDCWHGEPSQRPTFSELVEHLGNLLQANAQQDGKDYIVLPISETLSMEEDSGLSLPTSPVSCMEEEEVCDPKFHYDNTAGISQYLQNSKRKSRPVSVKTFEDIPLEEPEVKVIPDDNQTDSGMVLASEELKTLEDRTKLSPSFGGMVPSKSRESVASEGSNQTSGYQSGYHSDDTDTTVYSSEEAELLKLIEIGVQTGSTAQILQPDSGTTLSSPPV

Sequence of Epidermal growth factor receptor (P00533 whole entry): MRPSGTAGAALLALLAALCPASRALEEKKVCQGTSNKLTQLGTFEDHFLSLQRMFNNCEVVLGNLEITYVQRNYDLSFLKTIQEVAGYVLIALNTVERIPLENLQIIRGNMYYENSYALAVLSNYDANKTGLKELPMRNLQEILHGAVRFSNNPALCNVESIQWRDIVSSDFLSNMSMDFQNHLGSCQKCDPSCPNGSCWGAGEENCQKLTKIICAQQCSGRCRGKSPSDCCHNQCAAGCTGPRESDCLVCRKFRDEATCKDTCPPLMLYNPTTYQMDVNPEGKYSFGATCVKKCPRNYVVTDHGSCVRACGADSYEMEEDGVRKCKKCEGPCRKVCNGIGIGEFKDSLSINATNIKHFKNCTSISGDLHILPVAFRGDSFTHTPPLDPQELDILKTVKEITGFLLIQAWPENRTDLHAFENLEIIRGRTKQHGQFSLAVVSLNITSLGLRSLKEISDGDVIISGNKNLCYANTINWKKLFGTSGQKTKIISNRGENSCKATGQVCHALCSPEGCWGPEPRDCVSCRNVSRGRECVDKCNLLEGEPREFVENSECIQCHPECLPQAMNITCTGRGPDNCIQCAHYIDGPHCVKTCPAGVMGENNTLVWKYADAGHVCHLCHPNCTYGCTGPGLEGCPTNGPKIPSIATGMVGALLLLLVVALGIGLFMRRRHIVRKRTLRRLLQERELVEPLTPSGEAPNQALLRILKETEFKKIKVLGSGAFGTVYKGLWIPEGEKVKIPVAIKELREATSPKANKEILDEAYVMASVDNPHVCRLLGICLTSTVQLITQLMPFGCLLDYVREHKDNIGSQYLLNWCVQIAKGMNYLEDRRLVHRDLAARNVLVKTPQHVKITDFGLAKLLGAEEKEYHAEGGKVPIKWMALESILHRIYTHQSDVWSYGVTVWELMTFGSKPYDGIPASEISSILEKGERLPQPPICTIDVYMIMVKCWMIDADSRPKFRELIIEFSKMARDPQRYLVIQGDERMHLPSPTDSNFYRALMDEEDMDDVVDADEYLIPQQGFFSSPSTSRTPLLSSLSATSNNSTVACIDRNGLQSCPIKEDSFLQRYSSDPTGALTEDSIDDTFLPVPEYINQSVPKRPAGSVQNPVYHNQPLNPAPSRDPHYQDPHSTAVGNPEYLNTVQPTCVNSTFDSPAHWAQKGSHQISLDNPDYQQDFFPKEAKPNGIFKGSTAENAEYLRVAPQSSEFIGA
Description for cells: Antiproliferative activity against human HeLa cells after 72 hrs by Sulforhodamine B-stain assay

For `O=C(O)c1ccc(Nc2nncc3ccccc23)cc1`, the values for the 50% inhibitory concentration (IC50) (in assay [1]; in “cells”; in assay [2]) were 6.2 nM, 3.92 nM and 0.68 nM, respectively.

Turning to `Fc1ccc(/C=C/C(=N/Nc2nncc3ccccc23)c2ccccc2)cc1`, the IC50 (commonly the point on the concentration scale where inhibition reaches its midpoint) was determined as 4.45 nM in “cells” and 0.88 nM in assay [2].

For `O=C1CS/C(=N/Nc2nncc3ccccc23)N1`, the IC50 is 51 nM in assay [1], 57 nM in the assay “cells” and 4.4 nM in assay [2].

For `O=S(=O)(Nc1nccs1)c1ccc(Nc2nncc3ccccc23)cc1`, the IC50 in assay [1] came to 88 nM; in “cells”, 15 nM; in assay [2], 8.6 nM.

As for `Fc1ccc(Nc2nncc3ccccc23)cc1`, the IC50 in assay [1] is 6 nM; in “cells”, 2.8 nM; in assay [2] it was 0.67 nM.

Take `O=S(=O)(Nc1ncccn1)c1ccc(Nc2nncc3ccccc23)cc1`: the IC50 was 86 nM in assay [1], 14 nM in “cells” and 8.5 nM in assay [2].

Take `S=C(NNc1nncc2ccccc12)Nc1ccc(Cl)cc1`: the values for the IC50 (in assay [1]; in “cells”; in assay [2]) were 64 nM, 20 nM and 6.1 nM, respectively.

Take `N#Cc1ccc(Nc2nncc3ccccc23)cc1`: the IC50 in assay [1] came out at 4.1 nM; in “cells”, 1.5 nM; in assay [2] it was 0.43 nM.

Regarding `Cc1ccc(C(/C=C/c2ccc(F)cc2)=N\Nc2nncc3ccccc23)cc1`, the IC50 turned out to be 6.5 nM in assay [1], 3.4 nM in “cells” and 0.7 nM in assay [2].

As for `Cc1cc(C)nc(NS(=O)(=O)c2ccc(Nc3nncc4ccccc34)cc2)n1`, the IC50 in assay [1] is 6.7 nM; in “cells”, 3.5 nM; in assay [2] it was 0.77 nM.

`O=C1CS/C(=N/Nc2nncc3ccccc23)N1c1ccccc1`: the IC50 in assay [1] stood at 45 nM; in the assay “cells”, 56 nM; in assay [2] it was 3.5 nM.

With `O=C1CS/C(=N/Nc2nncc3ccccc23)N1c1ccc(Cl)cc1`, the IC50 in assay [1] worked out at 42 nM; in the assay “cells”, 42 nM; in assay [2], 2.7 nM.

As to `C(=C\c1ccccc1)/C(=N/Nc1nncc2ccccc12)c1ccccc1`, the IC50 in assay [1] was found to be 5.6 nM; in “cells”, 1.4 nM; in assay [2], 0.42 nM.

In the case of `CCCCNC(=S)NNc1nncc2ccccc12`, the IC50 is 52 nM in assay [1], 49 nM in the assay “cells” and 4.5 nM in assay [2].

Take `NC(=S)NNc1nncc2ccccc12`: the IC50 in assay [1] turned out to be 77 nM; in “cells”, 37 nM; in assay [2], 7.5 nM.

`Cc1cc(NS(=O)(=O)c2ccc(Nc3nncc4ccccc34)cc2)no1`: the IC50 in assay [1] is 130 nM; in “cells”, 13 nM; in assay [2], 9.7 nM.

As for `S=C(NNc1nncc2ccccc12)Nc1ccccc1`, the IC50 came to 65 nM in assay [1], 39 nM in the assay “cells” and 6.2 nM in assay [2].

Regarding `CCOC(=O)c1ccc(Nc2nncc3ccccc23)cc1`, the IC50 in assay [1] was 4.4 nM; in “cells” it was 2.7 nM; in assay [2], 0.54 nM.

For the compound `CCN=C(S)NNc1nncc2ccccc12`, the IC50 in assay [1] amounted to 76 nM; in the assay “cells”, 48 nM; in assay [2] it was 7.3 nM.

With `COc1ccc(NC(=S)NNc2nncc3ccccc23)cc1`, the results for the IC50 (in assay [1]; in the assay “cells”; in assay [2]) were 53 nM, 38 nM and 5.7 nM, respectively.

`Clc1ccc(/C=C/C(=N/Nc2nncc3ccccc23)c2ccccc2)cc1`: the IC50 in assay [1] is 4.6 nM; in “cells” it was 2.6 nM; in assay [2], 0.55 nM.

For `CCN1C(=O)CS/C1=N/Nc1nncc2ccccc12`, the IC50 in assay [1] amounted to 47 nM; in “cells”, 65 nM; in assay [2], 3.6 nM.

Take `NS(=O)(=O)c1ccc(Nc2nncc3ccccc23)cc1`: the IC50 came out at 140 nM in assay [1], 12 nM in the assay “cells” and 9.8 nM in assay [2].

Consider `O=S(=O)(Nc1ccccn1)c1ccc(Nc2nncc3ccccc23)cc1`, for which the IC50 in assay [1] was 84 nM; in “cells”, 26 nM; in assay [2], 7.8 nM.

In the case of `Oc1cc(O)c2cc(O)c(-c3cc(O)c(O)c(O)c3)[o+]c2c1` [DELPHINIDIN CHLORIDE], the IC50 in assay [1] came out at 6.27 nM; in assay [2], 5.09 nM.

Turning to `CCCCN1C(=O)CS/C1=N/Nc1nncc2ccccc12`, the IC50 in assay [1] amounted to 23 nM; in “cells” it was 22 nM; in assay [2], 1.2 nM.

Consider `Clc1ccc(C(/C=C/c2ccccc2)=N\Nc2nncc3ccccc23)cc1`, for which the IC50 in assay [1] came to 6.3 nM; in “cells”, 3.3 nM; in assay [2] it was 0.69 nM.

As for `COc1ccc(N2C(=O)CS/C2=N/Nc2nncc3ccccc23)cc1`, the IC50 in assay [1] came to 36 nM; in “cells”, 34 nM; in assay [2], 2.4 nM.

For `COc1ccc(/C=C/C(=N/Nc2nncc3ccccc23)c2ccc(Cl)cc2)cc1`, the figures for the IC50 (in assay [1]; in the assay “cells”; in assay [2]) were 5.4 nM, 1.2 nM and 0.41 nM, respectively.
